We go through four compounds from ChEMBL document CHEMBL1148448, “Fluorinated phenylcyclopropylamines. 1. Synthesis and effect of fluorine substitution at the cyclopropane ring on inhibition of microbial tyramine oxidase” (J Med Chem, 2004).

For this assay, the system named is tyramine oxidase (microbial, copper amine oxidase). The experiment in a line: Compound was evaluated for inhibition of Microbial tyramine oxidase; ni denotes no inhibition detected at millimolar concentrations.
Regarding `Cl.NC1(c2ccccc2)CC1F` (centres undefined), the IC50 entry is given as “Not Active”.
For the compound `Cl.NCC[C@@H]1C[C@]1(F)c1ccccc1` (relative stereo), the IC50 entry was “Not Active”.
For the compound `Cl.NC[C@@H]1C[C@]1(F)c1ccccc1` (relative stereo), the IC50 entry is “Not Active”.
The entry for `NC(=O)C1CC1(F)c1ccccc1` (trans isomer) is “Not Active”.
